Our source for the TGI and GI50 values is PubChem BioAssay (NCI).

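Each compound was tested at five concentrations against cells in 96-well plates for 48 hours. At the GI50, growth is halved. TGI marks complete inhibition of growth.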

One test concerns SK-OV-3 ovarian. Kind of test: NCI-60 cell line screen, 48 h.
As to `NS(=O)(=O)c1cc(Br)c(N=Nc2ccc(O)c3ncccc23)c(Br)c1`, the TGI was more than 100 µM.
On to `O=C(/C=C/c1ccncc1)c1cc(Cl)ccc1O`, for which the GI50 is 27.4 µM and the TGI turned out to be 87.7 µM.
Consider `Cc1cc(/C=C/c2ccc3cc(N(C)C)ccc3[n+]2C)c(C)n1-c1ccccc1`, for which the GI50 is 0.142 µM and the TGI worked out at 1 µM.
On to `COc1cc2c3c(n(C)c(=O)c2cc1OC)-c1cc2c(cc1/C3=C\CCCN)OCO2`, for which the GI50 is 41 µM and the TGI was more than 100 µM.
Molecule `Cc1ccc(S(=O)(=O)Nc2ccccc2C(=O)c2ccc(C)c(C)c2)cc1` had a TGI of more than 100 µM.
With `CC(C)C(C)/C=C\C(C)C1CCC2C3=CC=C4CC(O)CCC4(C)C3CCC21C` (centres undefined), the TGI was more than 100 µM.
`OC(c1nc2ccccc2[nH]1)C(O)C(O)C(O)c1nc2ccccc2[nH]1` (centres undefined) came in with a TGI of more than 100 µM.
`CCOC(=O)c1cc2nc3ccccc3c(=O)n2c2ccccc12` displayed a TGI of more than 10 µM.
Molecule `Cc1cc(O)c(/C=N/C(=S)NCc2ccccc2)c(=O)o1` gave a TGI of more than 100 µM.
With `COc1cc2c3c(n(C)c(=O)c2cc1OC)-c1cc2c(cc1/C3=C\CCN)OCO2`, the GI50 is 3.88 µM and the TGI was more than 62.8 µM.

In the next test the test system is SW-620 colon. Kind of test: NCI-60 cell line screen, 48 h.
As to `CN(C(=O)c1ccc(C(F)(F)F)cc1)c1ccc(Oc2ccc3c(c2)cc(C(=O)N2CCN(Cc4ccc(OC(F)F)cc4)CC2)n3C)nc1`, the GI50 was 98.2 µM and the TGI was more than 100 µM.
As to `Cc1cc(-c2ccc3nc(C4CCOCC4)n(CCOC(F)(F)F)c3c2)cn(C)c1=O`, the GI50 was 1.79 µM and the TGI amounted to 33.3 µM.
On to `Nc1ncnc2c1nnn2C1OC(CO)C(O)C1O` (centres undefined), for which the TGI turned out to be 8.35 µM.
`COc1cc(C2c3cc4c(cc3OC(C)(O)C2C)OCO4)cc(OC)c1OC` (centres undefined) registered a TGI of more than 100 µM.
As for `C[C@@H]1CCC2[C@@H](C)[C@@H](OCC(CO[C@H]3OC4O[C@@]5(C)CC[C@H]6[C@H](C)CCC([C@H]3C)[C@@]46OO5)OC(=O)CCC(=O)O)OC3O[C@@]4(C)CC[C@@H]1[C@]32OO4` (some centres undefined), the GI50 was 0.0285 µM and the TGI is 18.1 µM.
As for `COc1cc(OC)cc(-c2cc(=O)c3c(OC)c(OC)c(OC)c(OC)c3o2)c1`, the TGI was more than 100 µM.
Turning to `COc1cc2c(c(OC)c1OC)-c1ccc(OC)c(=O)cc1C(NC(=O)c1ccc(N=[N+]=[N-])cc1)CC2` (centres undefined), the TGI was more than 100 µM.
In the case of `COc1ccc([C@H]2[C@@H](F)C(=O)N2c2cc(OC)c(OC)c(OC)c2)cc1F`, the GI50 is 0.0562 µM and the TGI was more than 100 µM.
In the same order, the values of `CC(=O)[C@@]12O[C@@H]1CC1C3CCC4=CC(O)CCC4(C)C3CCC12C` (some centres undefined) are 39.5 µM and more than 100 µM.
In the same order, the values of `OCC#Cc1ccccc1C#Cc1ccccc1` are 20 µM and 43.6 µM.
Take `NS(=O)(=O)c1cc(Br)c(N=Nc2ccc(O)c3ncccc23)c(Br)c1`: the TGI is more than 100 µM.
For the molecule `O=C(/C=C/c1ccncc1)c1cc(Cl)ccc1O`, the GI50 was 12.5 µM and the TGI stood at 30.5 µM.
For `Cc1cc(/C=C/c2ccc3cc(N(C)C)ccc3[n+]2C)c(C)n1-c1ccccc1` the same measures were 0.174 µM and 7.79 µM.
In the case of `COc1cc2c3c(n(C)c(=O)c2cc1OC)-c1cc2c(cc1/C3=C\CCCN)OCO2`, the GI50 is 2.33 µM and the TGI was found to be 32.9 µM.
`Cc1ccc(S(=O)(=O)Nc2ccccc2C(=O)c2ccc(C)c(C)c2)cc1`: the TGI is more than 100 µM.
The molecule `CC(C)C(C)/C=C\C(C)C1CCC2C3=CC=C4CC(O)CCC4(C)C3CCC21C` (centres undefined) displayed a TGI of more than 72.3 µM.
Consider `OC(c1nc2ccccc2[nH]1)C(O)C(O)C(O)c1nc2ccccc2[nH]1` (centres undefined), for which the TGI was more than 100 µM.
In turn, `CCOC(=O)c1cc2nc3ccccc3c(=O)n2c2ccccc12` yielded a TGI of more than 10 µM.
The same measure, in the same setting: the result for `Cc1cc(O)c(/C=N/C(=S)NCc2ccccc2)c(=O)o1` reads more than 100 µM.
For the molecule `COc1cc2c3c(n(C)c(=O)c2cc1OC)-c1cc2c(cc1/C3=C\CCN)OCO2`, the GI50 is less than 0.01 µM and the TGI came out at 1.62 µM.

Another test relates to MCF7 breast. The experiment in a line: NCI-60 cell line screen, 48 h.
`CN(C(=O)c1ccc(C(F)(F)F)cc1)c1ccc(Oc2ccc3c(c2)cc(C(=O)N2CCN(Cc4ccc(OC(F)F)cc4)CC2)n3C)nc1`: the GI50 is 0.515 µM and the TGI amounted to 43.4 µM.
Consider `Cc1cc(-c2ccc3nc(C4CCOCC4)n(CCOC(F)(F)F)c3c2)cn(C)c1=O`, for which the GI50 is 0.0586 µM.
The molecule `Nc1ncnc2c1nnn2C1OC(CO)C(O)C1O` (centres undefined) came in with a TGI of 16.8 µM.
Molecule `COc1cc(C2c3cc4c(cc3OC(C)(O)C2C)OCO4)cc(OC)c1OC` (centres undefined) returned a TGI of more than 100 µM.
Consider `C[C@@H]1CCC2[C@@H](C)[C@@H](OCC(CO[C@H]3OC4O[C@@]5(C)CC[C@H]6[C@H](C)CCC([C@H]3C)[C@@]46OO5)OC(=O)CCC(=O)O)OC3O[C@@]4(C)CC[C@@H]1[C@]32OO4` (some centres undefined), for which the GI50 is less than 0.01 µM and the TGI is 16.7 µM.
Turning to `COc1cc(OC)cc(-c2cc(=O)c3c(OC)c(OC)c(OC)c(OC)c3o2)c1`, the TGI was more than 100 µM.
On the same count and under the same terms, with `COc1cc2c(c(OC)c1OC)-c1ccc(OC)c(=O)cc1C(NC(=O)c1ccc(N=[N+]=[N-])cc1)CC2` (centres undefined) the figure was more than 100 µM.
Turning to `COc1ccc([C@H]2[C@@H](F)C(=O)N2c2cc(OC)c(OC)c(OC)c2)cc1F`, the GI50 was 0.0364 µM and the TGI is more than 100 µM.
For `CC(=O)[C@@]12O[C@@H]1CC1C3CCC4=CC(O)CCC4(C)C3CCC12C` (some centres undefined), the GI50 is more than 100 µM and the TGI was more than 100 µM.
As to `OCC#Cc1ccccc1C#Cc1ccccc1`, the GI50 was 19.5 µM and the TGI was 44.4 µM.
With `NS(=O)(=O)c1cc(Br)c(N=Nc2ccc(O)c3ncccc23)c(Br)c1`, the TGI is 38.5 µM.
Take `O=C(/C=C/c1ccncc1)c1cc(Cl)ccc1O`: the GI50 was 13.1 µM and the TGI was determined as 27.7 µM.
For `Cc1cc(/C=C/c2ccc3cc(N(C)C)ccc3[n+]2C)c(C)n1-c1ccccc1`, the GI50 was 0.169 µM and the TGI is 3.37 µM.
